# From US20260007756A1, “COMPOUND AND USE THEREOF” (COHERENT BIOPHARMA (SUZHOU) LIMITED, priority 2022, published 2026)
# Tests used:
# [1] = system: human breast cancer MDA-MB-231 cell subcutaneous xenograft; assay: Pharmacodynamic assessment, MDA-MB-231 xenograft model; type: in vivo; details: 4 mg/kg iv biw×3
# Description: Objective: Pre-clinical pharmacodynamic study of test compounds CR20274, CR20282, and CR20285 in BALB/c nude mouse model with human breast cancer MDA-MB-231 cell subcutaneous xenograft.
# Procedures: MDA-MB-231 tumor mass was grafted subcutaneously at the right axilla of the mice, and the mice were randomized after the mean tumor volume was 200 mm^3. After administration, the animals were monitored daily for health conditions and death, and the routine examinations included observation of the effect on tumor growth and the effect of the treatment on the daily performance of the animals, such as behavioral activities, food and water intake, weight changes (measured once every other day), appearance, or other abnormal conditions. Whether the tumor growth was inhibited or delayed or the tumor was cured was also observed. The tumor volume was measured periodically. The tumor volume was calculated using the following formula: V=1/2×(a×b^2), where a and b denote the long diameter and short diameter of the tumor, respectively. The calculation formula for the tumor growth inhibition, TGI (%), is TGI %=(1−T/C)×100% (T and C are the mean tumor volume of the treatment group and control group, respectively, at a particular time point).
# [2] = system: human liver cancer HepG2 cell subcutaneous xenograft tumor; assay: Pharmacodynamic assessment, HepG2 xenograft model; type: in vivo, BALB/c nude mouse; details: 4 mg/kg iv biw×3, day 36 after grouping
# Procedure: Objective: Pre-clinical assessment of the efficacy of CR202 series of compounds in BALB/c nude mouse model with human liver cancer HepG2 cell subcutaneous xenograft tumor with no FOLR1 or PSMA receptor expression.
# Procedures: 0.1 mL (10×10^6 cells) of HepG2 cells was subcutaneously inoculated on the right back of each mouse, and the mice were randomized into a modeling control group and treatment groups after the mean tumor volume was approximately 100-150 mm^3. The treatment was started on the first day of grouping. Before the start of administration, the animals were weighed, and the tumor volume was measured with a vernier caliper. After the grafting of tumor cells, the routine monitoring included the effect on tumor growth and the effect of treatment on the normal behavior of the animals, specifically the activity, food and water intake, weight gain or loss, the eyes, the hair, and other abnormal conditions. After the administration was started, the body weight and tumor size of the mice were measured periodically. The calculation formula for tumor volume: Tumor volume V (mm^3)=1/2×(a×b^2) (where a denotes the long diameter and b notes the short diameter). The calculation formula for the tumor growth inhibition, TGI (%), is TGI %=(1−T/C)×100% (T and C are the mean tumor volume of the treatment group and control group, respectively, at a particular time point).
structure (smiles),measurement,setting,value
CC[C@@H]1C(=O)N(C)c2cnc(Nc3ccc(-c4cn([C@H]5CC[C@@H](NCCOCCC#Cc6cccc7c6CN(C6CCC(=O)NC6=O)C7=O)CC5)nn4)cc3OC)nc2N1C1CCCC1 (stereo partly drawn) [CR20274],Anti-tumor effect,[1],no anti-tumor effect
same,Mean tumor volume,[2],1329.84 mm^3
same,TGI,[2],22.99%
